Laboratory results taken from publication PMC9284540 (Journal of Molecular Biology, 2022).
Several values for one entry are separate records, joined by “and”; a condition that tells them apart may be missing. Equal entries are not always repeated.

Key:
SARS-CoV-2 MD [1] = molecular target: T1, SARS-CoV-2 MD (Severe acute respiratory syndrome coronavirus 2, UniProt P0DTD1); assay type: binding
CHIKV MD [2] = molecular target: T2, CHIKV MD (Chikungunya virus, UniProt Q8JUX6); assay type: biochemical
T2 sequence (Q8JUX6 1334-1493 limits assumed): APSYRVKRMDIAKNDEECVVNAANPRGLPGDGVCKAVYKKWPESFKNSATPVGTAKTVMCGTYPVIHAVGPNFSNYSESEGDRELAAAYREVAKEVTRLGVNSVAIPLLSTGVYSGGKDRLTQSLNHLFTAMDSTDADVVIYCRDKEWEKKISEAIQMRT

viral MDs = assay type: biochemical
SARS-CoV-2 MD [3] = molecular target: T1, SARS-CoV-2 MD; assay type: binding; remark: listed apart in the source
CHIKV MD [4] = molecular target: T2, CHIKV MD; test: biochemical; assay type: binding
CHIKV MD [5] = molecular target: T2, CHIKV MD; assay type: binding
MAYV MD [6] = molecular target: T3, MAYV MD (Mayaro virus, UniProt Q8QZ73); assay type: biochemical
T3 sequence (Q8QZ73 1335-1493 limits assumed): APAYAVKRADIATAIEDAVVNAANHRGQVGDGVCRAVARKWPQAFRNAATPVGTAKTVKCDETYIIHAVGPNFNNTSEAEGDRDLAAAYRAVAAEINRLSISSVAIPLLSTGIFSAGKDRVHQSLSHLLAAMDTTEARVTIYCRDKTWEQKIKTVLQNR

SARS-CoV-2 MD [7] = molecular target: T1, SARS-CoV-2 MD; assay type: biochemical
hPARP14 MD2 = hPARP14 MD2 (Homo sapiens, UniProt Q460N5); test: biochemical; assay type: binding
Sequence of hPARP14 MD2 (Q460N5 999-1191): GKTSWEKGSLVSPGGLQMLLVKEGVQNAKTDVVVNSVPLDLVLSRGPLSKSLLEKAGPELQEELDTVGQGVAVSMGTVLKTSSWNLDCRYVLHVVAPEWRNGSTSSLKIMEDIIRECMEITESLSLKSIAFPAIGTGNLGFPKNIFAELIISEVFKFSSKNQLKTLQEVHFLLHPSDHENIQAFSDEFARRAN

MAYV MD [8] = molecular target: T3, MAYV MD; assay type: binding

Row | Compound | exchange regime on NMR time scale between free and bound form (SARS-CoV-2 MD [1]) | Initial substrate decay rate k (CHIKV MD [2]) [µM/min] | reduction of the k value (viral MDs) | -T*ΔS (SARS-CoV-2 MD [3]) [kcal/mol] | ΔH (SARS-CoV-2 MD [3]) [kcal/mol] | ΔS (SARS-CoV-2 MD [3]) | Kd (CHIKV MD [4]) [µM] | exchange regime on NMR time scale (CHIKV MD [5]) | Initial substrate decay rate k (MAYV MD [6]) | Initial substrate decay rate k (SARS-CoV-2 MD [7]) | reduction of the k value (SARS-CoV-2 MD [7]) [%] | Kd (hPARP14 MD2) [µM] | exchange regime on NMR time scale (MAYV MD [8])
1 | Nc1ncnc2c1ncn2[C@@H]1O[C@H](CO)[C@@H](O)[C@H]1O [Adenosine] | fast exchange regime |  |  |  |  |  |  |  |  |  |  |  | 
2 | N#C[C@@]1(c2ccc3c(N)ncnn23)O[C@H](CO)[C@@H](O)[C@H]1O [GS-441524] | slow exchange regime | 0.179 ± 0.003 | 15–32% | -1.55 | -5.25 ± 0.13 | +5.2 cal/mol K-1 | ~100 | fast and intermediate exchange regime | 0.190 ± 0.002 µM/min and 0.153 ± 0.003 µM/min | 0.121 ± 0.002 µM/min and 0.075 ± 0.003 µM/min | 60 | ~250 | fast and intermediate exchange regime
3 | CCC(CC)COC(=O)[C@H](C)N[P@](=O)(OC[C@H]1O[C@@](C#N)(c2ccc3c(N)ncnn23)[C@H](O)[C@@H]1O)Oc1ccccc1 [Remdesivir] |  |  |  |  |  |  |  |  |  | 0.157 ± 0.012 µM/min and 0.169 ± 0.002 µM/min |  |  | 
